Experimental findings from PubChem BioAssay (NCI) are described below.

Structures are written as SMILES.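 Values below derive from 48-hour exposures of cells grown in 96-well plates, with endpoints linearly interpolated between the two concentrations bracketing the appropriate inhibition level. TGI: concentration producing complete growth inhibition.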

Test systems include 786-0 renal; OVCAR-5 ovarian; RXF 393 renal; HOP-92 NSCLC; IGROV1 ovarian; HL-60(TB) leukemia; ACHN renal; OVCAR-8 ovarian; SNB-19 CNS; CCRF-CEM leukemia.
What all share (assay): growth of human tumour cells (NCI), 48 h

Take `COc1cc(/C=C/C(=O)c2c(=O)o[nH][n+]2-c2ccccc2)ccc1[O-]`: the TGI in the experiment on 786-0 renal amounted to 4.94 µM; in the experiment on OVCAR-5 ovarian, 25.6 µM; in the experiment on RXF 393 renal, 4.65 µM; in the experiment on HOP-92 NSCLC, 7.39 µM; in the experiment on IGROV1 ovarian it was 9.66 µM; in the experiment on HL-60(TB) leukemia it was 3.65 µM. Besides, the TGI in the experiment on ACHN renal came to 6.17 µM; in the experiment on OVCAR-8 ovarian it was 8.09 µM; in the experiment on SNB-19 CNS, 17.4 µM; with CCRF-CEM leukemia, 3.52 µM.

Take `COC(=O)[C@H]1[C@@H](C(C)C)O[C@@H](C(C)C)O[C@H]1C(F)(F)F`: the TGI in the experiment with 786-0 renal, with OVCAR-5 ovarian, with RXF 393 renal, with HOP-92 NSCLC, in the experiment with IGROV1 ovarian and in the experiment on HL-60(TB) leukemia was above 100 µM each time. Besides, the TGI in the experiment on ACHN renal, with OVCAR-8 ovarian, in the experiment on SNB-19 CNS and with CCRF-CEM leukemia was above 100 µM each time.

Turning to `C[C@@H](O)C(=O)N1[C@@H]2CC3CC[C@]2(CS1(=O)=O)C3(C)C`, the TGI in the experiment with 786-0 renal, in the experiment on OVCAR-5 ovarian, in the experiment on RXF 393 renal, in the experiment on HOP-92 NSCLC, in the experiment on IGROV1 ovarian and in the experiment with HL-60(TB) leukemia was above 100 µM throughout. Further, the TGI in the experiment on ACHN renal is above 100 µM; in the experiment with OVCAR-8 ovarian, above 100 µM; with SNB-19 CNS it was above 100 µM; with CCRF-CEM leukemia, 72.9 µM.

Consider `OCC1OC(n2cnc3cncnc32)C(O)C1O` (stereo unspecified), for which the TGI in the experiment with OVCAR-5 ovarian was 4.02 µM; with RXF 393 renal, 3.9 µM; in the experiment with HOP-92 NSCLC it was 4.21 µM; in the experiment with IGROV1 ovarian it was 4.81 µM; in the experiment with HL-60(TB) leukemia it was 1.73 µM; in the experiment on OVCAR-8 ovarian, 3.17 µM. In addition, the TGI is 4.27 µM in the experiment on SNB-19 CNS and above 26.1 µM in the experiment with CCRF-CEM leukemia.

Take `Cc1ccc(C(=O)O)c(CC2Cc3c(C)cccc3C2=O)c1` (stereo unspecified): the TGI in the experiment on 786-0 renal, in the experiment on OVCAR-5 ovarian, with RXF 393 renal, with HOP-92 NSCLC, in the experiment with IGROV1 ovarian and in the experiment with HL-60(TB) leukemia was above 100 µM throughout. Further, the TGI in the experiment on ACHN renal, with OVCAR-8 ovarian, with SNB-19 CNS and in the experiment with CCRF-CEM leukemia was above 100 µM throughout.

Take `Cc1ccc(C(C)(C)C[P+](C)(c2ccccc2)c2ccccc2)cc1`: the TGI is above 100 µM in the experiment on OVCAR-5 ovarian; above 94.1 µM in the experiment with RXF 393 renal; 9.5 µM in the experiment on HOP-92 NSCLC; above 100 µM in the experiment on IGROV1 ovarian; 7.56 µM in the experiment with HL-60(TB) leukemia; above 100 µM with OVCAR-8 ovarian. The values for the TGI with SNB-19 CNS and with CCRF-CEM leukemia were 89.3 µM and above 79.3 µM, respectively.

On to `O=[N+]([O-])c1ccc2nc(-c3ccccn3)c(-c3ccccn3)nc2c1`, for which the TGI with 786-0 renal, with OVCAR-5 ovarian, with RXF 393 renal, in the experiment on HOP-92 NSCLC, with IGROV1 ovarian and with HL-60(TB) leukemia was above 100 µM in each case. Further, the TGI in the experiment on ACHN renal, in the experiment on OVCAR-8 ovarian, with SNB-19 CNS and in the experiment with CCRF-CEM leukemia was above 100 µM in each case.

`NC(=S)N/N=C\c1ccc(OCc2cccc(COc3ccc(/C=N/NC(N)=S)cc3)n2)cc1`: the TGI was above 100 µM in the experiment on 786-0 renal; 52.1 µM in the experiment on OVCAR-5 ovarian; 47.9 µM in the experiment with RXF 393 renal; above 100 µM in the experiment with HOP-92 NSCLC; above 100 µM with IGROV1 ovarian; above 100 µM in the experiment with HL-60(TB) leukemia. For the same compound, the TGI with ACHN renal, in the experiment on OVCAR-8 ovarian, in the experiment on SNB-19 CNS and in the experiment on CCRF-CEM leukemia was above 100 µM in each case.

As for `CCNc1ccc2c(c1)Cc1ccccc1-2`, the TGI in the experiment with 786-0 renal was above 100 µM; in the experiment on OVCAR-5 ovarian, above 100 µM; in the experiment on RXF 393 renal, above 100 µM; in the experiment on HOP-92 NSCLC it was 82.4 µM; with IGROV1 ovarian it was above 100 µM; in the experiment on HL-60(TB) leukemia it was above 100 µM. The TGI with ACHN renal, in the experiment on OVCAR-8 ovarian, in the experiment with SNB-19 CNS and in the experiment with CCRF-CEM leukemia was above 100 µM throughout.

With `CC(=O)OCC1OC(n2c3c(c(-c4cccc5ccccc45)c(C#N)c2=S)CCCC3)C(OC(C)=O)C(OC(C)=O)C1OC(C)=O` (stereo unspecified), the TGI in the experiment on 786-0 renal, in the experiment with OVCAR-5 ovarian, in the experiment with RXF 393 renal, with HOP-92 NSCLC, with IGROV1 ovarian and in the experiment on HL-60(TB) leukemia was above 100 µM each time. The TGI in the experiment with ACHN renal, with OVCAR-8 ovarian, with SNB-19 CNS and in the experiment on CCRF-CEM leukemia was above 100 µM each time.

As to `N#CC(C#N)=C1C(C#N)=C(N)NC12OCCO2`, the TGI with 786-0 renal, in the experiment with OVCAR-5 ovarian, in the experiment on RXF 393 renal, in the experiment with HOP-92 NSCLC, with IGROV1 ovarian and in the experiment with HL-60(TB) leukemia was above 100 µM throughout. The TGI with ACHN renal, with OVCAR-8 ovarian, in the experiment with SNB-19 CNS and in the experiment on CCRF-CEM leukemia was above 100 µM each time.

With `Cc1cc(C)c(P2C(=C(O[Si](C(C)C)(C(C)C)C(C)C)C(C)(C)C)C2(c2ccccc2)c2ccccc2)c(C)c1` (stereo unspecified), the TGI in the experiment with 786-0 renal, in the experiment on OVCAR-5 ovarian, with RXF 393 renal, in the experiment with HOP-92 NSCLC, in the experiment with IGROV1 ovarian and in the experiment on HL-60(TB) leukemia was above 100 µM in each case. For the same compound, the TGI with ACHN renal, in the experiment with OVCAR-8 ovarian, with SNB-19 CNS and with CCRF-CEM leukemia was above 100 µM each time.

As to `O=[N+]([O-])c1c(Br)cc(Br)c2c1Nc1c(ccc(Cl)c1Cl)S2`, the TGI with 786-0 renal was 22.8 µM; in the experiment with OVCAR-5 ovarian, 33.7 µM; in the experiment with RXF 393 renal it was 35.1 µM; with HOP-92 NSCLC it was 34.3 µM; in the experiment with IGROV1 ovarian it was 31.2 µM; with HL-60(TB) leukemia it was above 23.9 µM. Further, the TGI in the experiment on ACHN renal was 30.7 µM; with OVCAR-8 ovarian, 13.6 µM; in the experiment on SNB-19 CNS it was 35.1 µM; in the experiment with CCRF-CEM leukemia, 7.49 µM.

With `CCOC(=O)C(=[N+]=[N-])C(=O)Nc1nn2nnnc2c2ccccc12`, the TGI in the experiment on 786-0 renal, in the experiment on OVCAR-5 ovarian, with RXF 393 renal, with HOP-92 NSCLC, with IGROV1 ovarian and in the experiment with HL-60(TB) leukemia was above 100 µM each time. In addition, the TGI in the experiment with ACHN renal, with OVCAR-8 ovarian, in the experiment on SNB-19 CNS and with CCRF-CEM leukemia was above 100 µM each time.
